Measurements published in ChEMBL document CHEMBL1201862, “PubChem BioAssay data set” (2004).
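These data come from cells grown in 96-well plates and exposed to compound for 48 hours at five concentrations. GI50 is the concentration that inhibits growth by half.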 Calls of active or inactive are those of the source. No stated cut-off is given here; in the data, active = GI50 up to about 1.1 µM and inactive = higher.

Key:
Assay in all cases: inhibition of tumour cell growth, NCI panel, 48 h
SF-268 = system: SF-268
ACHN = system: ACHN
SK-MEL-28 = system: SK-MEL-28
Malme-3M = system: Malme-3M
NCI-H460 = system: NCI-H460
SK-MEL-5 = system: SK-MEL-5
TK-10 = system: TK-10
MCF7 = system: MCF7
HL-60 = system: HL-60
KM12 = system: KM12
K562 = system: K562
BT-549 = system: BT-549
M14 = system: M14
NCI-H23 = system: NCI-H23
786-0 = system: 786-0
SW-620 = system: SW-620
COLO 205 = system: COLO 205
CCRF-CEM = system: CCRF-CEM
NCI-H226 = system: NCI-H226
OVCAR-8 = system: OVCAR-8
OVCAR-3 = system: OVCAR-3
DU-145 = system: DU-145
SK-MEL-2 = system: SK-MEL-2
SNB-75 = system: SNB-75
UACC-62 = system: UACC-62
HCT-15 = system: HCT-15
OVCAR-4 = system: OVCAR-4
MOLT-4 = system: MOLT-4
SN12C = system: SN12C
UO-31 = system: UO-31
SF-295 = system: SF-295
OVCAR-5 = system: OVCAR-5
NCI-H522 = system: NCI-H522
RXF 393 = system: RXF 393
MDA-N = system: MDA-N
T47D = system: T47D
HT-29 = system: HT-29
NCI/ADR-RES = system: NCI/ADR-RES
IGROV-1 = system: IGROV-1
MDA-MB-231 = system: MDA-MB-231
SR = system: SR
A498 = system: A498
HCT-116 = system: HCT-116
SNB-19 = system: SNB-19
PC-3 = system: PC-3
Hs-578T = system: Hs-578T
SF-539 = system: SF-539
UACC-257 = system: UACC-257
SK-OV-3 = system: SK-OV-3
CAKI-1 = system: CAKI-1
HCC 2998 = system: HCC 2998
HOP-62 = system: HOP-62
EKVX = system: EKVX
LOX IMVI = system: LOX IMVI
A549 = system: A549
U-251 = system: U-251
HOP-92 = system: HOP-92
MDA-MB-435 = system: MDA-MB-435
RPMI-8226 = system: RPMI-8226

SMILES: CCN(CC)CCOc1ccccc1/C=C/c1noc2ccccc12
- GI50 (SF-268): 17.2 µM (inactive)
- GI50 (ACHN): 12.7 µM (inactive)
- GI50 (SK-MEL-28): 7.73 µM (inactive)
- GI50 (Malme-3M): 1.01 µM (active)
- GI50 (NCI-H460): 11.6 µM (inactive)
- GI50 (SK-MEL-5): 3.79 µM (inactive)
- GI50 (TK-10): 15 µM (inactive)
- GI50 (MCF7): 14.2 µM (inactive)
- GI50 (HL-60): 7.76 µM (inactive)
- GI50 (KM12): 16.4 µM (inactive)
- GI50 (K562): 9.29 µM (inactive)
- GI50 (BT-549): 16.3 µM (inactive)
- GI50 (M14): 2.54 µM (inactive)
- GI50 (NCI-H23): 13.9 µM (inactive)
- GI50 (786-0): 13.6 µM (inactive)
- GI50 (SW-620): 10.2 µM (inactive)
- GI50 (COLO 205): 6.21 µM (inactive)
- GI50 (CCRF-CEM): 15.2 µM (inactive)
- GI50 (NCI-H226): 16.3 µM (inactive)
- GI50 (OVCAR-8): 12.2 µM (inactive)
- GI50 (OVCAR-3): 14.7 µM (inactive)
- GI50 (DU-145): 15.7 µM (inactive)
- GI50 (SK-MEL-2): 0.736 µM (active)
- GI50 (SNB-75): 10.4 µM (inactive)
- GI50 (UACC-62): 10.6 µM (inactive)
- GI50 (HCT-15): 10.5 µM
- GI50 (OVCAR-4): 24.5 µM (inactive)
- GI50 (MOLT-4): 12.1 µM (inactive)
- GI50 (SN12C): 11.5 µM (inactive)
- GI50 (UO-31): 6.11 µM (inactive)
- GI50 (SF-295): 16.2 µM (inactive)
- GI50 (OVCAR-5): 12.5 µM (inactive)
- GI50 (NCI-H522): 8.17 µM (inactive)
- GI50 (RXF 393): 2.75 µM (inactive)
- GI50 (MDA-N): 11.8 µM (inactive)
- GI50 (T47D): 12.6 µM (inactive)
- GI50 (HT-29): 2.27 µM (inactive)
- GI50 (NCI/ADR-RES): 19 µM (inactive)
- GI50 (IGROV-1): 9.91 µM (inactive)
- GI50 (MDA-MB-231): 11.4 µM (inactive)
- GI50 (SR): 11.7 µM (inactive)
- GI50 (A498): 17.2 µM (inactive)
- GI50 (HCT-116): 6.22 µM (inactive)
- GI50 (SNB-19): 13.6 µM (inactive)
- GI50 (PC-3): 4.89 µM (inactive)
- GI50 (Hs-578T): 15.7 µM (inactive)
- GI50 (SF-539): 16 µM (inactive)
- GI50 (UACC-257): 3.95 µM (inactive)
- GI50 (SK-OV-3): 20 µM (inactive)
- GI50 (CAKI-1): 12.8 µM (inactive)
- GI50 (HCC 2998): 5.79 µM (inactive)
- GI50 (HOP-62): 14.4 µM (inactive)
- GI50 (EKVX): 15.2 µM (inactive)

SMILES: CCOP(=O)(O)CC1OC(CO)C(O)C1O (configuration not stated)
- GI50 (SF-268): > 100 µM (inactive)
- GI50 (ACHN): > 100 µM (inactive)
- GI50 (SK-MEL-28): > 100 µM (inactive)
- GI50 (Malme-3M): > 100 µM (inactive)
- GI50 (NCI-H460): > 100 µM (inactive)
- GI50 (SK-MEL-5): > 100 µM (inactive)
- GI50 (TK-10): > 100 µM (inactive)
- GI50 (LOX IMVI): > 100 µM (inactive)
- GI50 (K562): > 100 µM (inactive)
- GI50 (BT-549): > 100 µM (inactive)
- GI50 (M14): > 100 µM (inactive)
- GI50 (NCI-H23): > 100 µM (inactive)
- GI50 (786-0): > 100 µM (inactive)
- GI50 (SW-620): > 100 µM (inactive)
- GI50 (COLO 205): > 100 µM (inactive)
- GI50 (CCRF-CEM): > 100 µM (inactive)
- GI50 (A549): > 100 µM (inactive)
- GI50 (NCI-H226): > 100 µM (inactive)
- GI50 (U-251): > 100 µM (inactive)
- GI50 (OVCAR-8): > 100 µM (inactive)
- GI50 (OVCAR-3): > 100 µM (inactive)
- GI50 (DU-145): > 100 µM (inactive)
- GI50 (SK-MEL-2): > 100 µM (inactive)
- GI50 (SNB-75): > 100 µM (inactive)
- GI50 (HOP-92): > 100 µM (inactive)
- GI50 (UACC-62): > 100 µM (inactive)
- GI50 (HCT-15): > 100 µM
- GI50 (MOLT-4): > 100 µM (inactive)
- GI50 (SN12C): > 100 µM (inactive)
- GI50 (UO-31): > 100 µM (inactive)
- GI50 (SF-295): > 100 µM (inactive)
- GI50 (OVCAR-5): > 100 µM (inactive)
- GI50 (NCI-H522): > 100 µM (inactive)
- GI50 (RXF 393): > 100 µM (inactive)
- GI50 (MDA-N): > 100 µM (inactive)
- GI50 (T47D): > 100 µM (inactive)
- GI50 (HT-29): > 100 µM (inactive)
- GI50 (NCI/ADR-RES): > 100 µM (inactive)
- GI50 (IGROV-1): > 100 µM (inactive)
- GI50 (MDA-MB-231): > 100 µM (inactive)
- GI50 (HCT-116): > 100 µM (inactive)
- GI50 (SNB-19): > 100 µM (inactive)
- GI50 (PC-3): > 100 µM (inactive)
- GI50 (Hs-578T): > 100 µM (inactive)
- GI50 (SF-539): > 100 µM (inactive)
- GI50 (UACC-257): > 100 µM (inactive)
- GI50 (SK-OV-3): > 100 µM (inactive)
- GI50 (HOP-62): > 100 µM (inactive)
- GI50 (EKVX): > 100 µM (inactive)

SMILES: CC(=O)N(CCCCNC(=O)C(F)(F)F)CCCNC(=O)C(F)(F)F
- GI50 (SF-268): > 100 µM (inactive)
- GI50 (ACHN): > 100 µM (inactive)
- GI50 (SK-MEL-28): > 100 µM (inactive)
- GI50 (NCI-H460): > 100 µM (inactive)
- GI50 (SK-MEL-5): > 100 µM (inactive)
- GI50 (TK-10): > 100 µM (inactive)
- GI50 (MCF7): > 100 µM (inactive)
- GI50 (HL-60): > 100 µM (inactive)
- GI50 (KM12): > 100 µM (inactive)
- GI50 (K562): > 100 µM (inactive)
- GI50 (BT-549): > 100 µM (inactive)
- GI50 (M14): > 100 µM (inactive)
- GI50 (NCI-H23): > 100 µM (inactive)
- GI50 (786-0): > 100 µM (inactive)
- GI50 (SW-620): > 100 µM (inactive)
- GI50 (COLO 205): > 100 µM (inactive)
- GI50 (CCRF-CEM): > 100 µM (inactive)
- GI50 (MDA-MB-435): > 100 µM (inactive)
- GI50 (RPMI-8226): > 100 µM (inactive)
- GI50 (A549): > 100 µM (inactive)
- GI50 (NCI-H226): > 100 µM (inactive)
- GI50 (U-251): > 100 µM (inactive)
- GI50 (OVCAR-8): > 100 µM (inactive)
- GI50 (OVCAR-3): > 100 µM (inactive)
- GI50 (DU-145): > 100 µM (inactive)
- GI50 (SK-MEL-2): > 100 µM (inactive)
- GI50 (SNB-75): > 100 µM (inactive)
- GI50 (HOP-92): > 100 µM (inactive)
- GI50 (UACC-62): > 100 µM (inactive)
- GI50 (HCT-15): > 100 µM
- GI50 (OVCAR-4): > 100 µM (inactive)
- GI50 (MOLT-4): > 100 µM (inactive)
- GI50 (SN12C): > 100 µM (inactive)
- GI50 (UO-31): > 100 µM (inactive)
- GI50 (SF-295): > 100 µM (inactive)
- GI50 (OVCAR-5): > 100 µM (inactive)
- GI50 (NCI-H522): > 100 µM (inactive)
- GI50 (RXF 393): > 100 µM (inactive)
- GI50 (T47D): > 100 µM (inactive)
- GI50 (HT-29): > 100 µM (inactive)
- GI50 (NCI/ADR-RES): > 100 µM (inactive)
- GI50 (IGROV-1): > 100 µM (inactive)
- GI50 (MDA-MB-231): > 100 µM (inactive)
- GI50 (SR): > 100 µM (inactive)
- GI50 (A498): > 100 µM (inactive)
- GI50 (HCT-116): > 100 µM (inactive)
- GI50 (SNB-19): > 100 µM (inactive)
- GI50 (PC-3): > 100 µM (inactive)
- GI50 (Hs-578T): > 100 µM (inactive)
- GI50 (SF-539): > 100 µM (inactive)
- GI50 (UACC-257): > 100 µM (inactive)
- GI50 (SK-OV-3): > 100 µM (inactive)
- GI50 (HCC 2998): > 100 µM (inactive)
- GI50 (HOP-62): > 100 µM (inactive)
- GI50 (EKVX): > 100 µM (inactive)
